According to ChEMBL document CHEMBL6074620, “Discovery of a triphenylamine-based ligand that targets mitochondrial DNA G-quadruplexes and activates the cGAS-STING immunomodulatory pathway” (Eur J Med Chem, 2024):
The source made the active and inactive calls.

What was measured:
[1] = test system: Mus musculus; experiment: Immunostimulatory activity in female BALB/c mouse implanted with mouse 4T1 cells assessed as downregulation of M2 macrophages level 2.5 mg/kg, sc by flow cytometry analysis; type: functional, organism-based
[2] = test system: 4T1; experiment: Induction of apoptosis in mouse 4T1 cells assessed as decrease in PARP level at 5 uM by Western blotting analysis; type: functional, cell-based
[3] = test system: 4T1; experiment: Induction of mitochondrial damage in mouse 4T1 cells assessed as decrease in CytB level at 5 uM in presence of NAC by qPCR analysis; type: functional, cell-based
[4] = test system: 4T1; experiment: Induction of ROS generation in mouse 4T1 cells assessed as increase green fluorescence by DCFH-DA staining based analysis; type: functional, cell-based
[5] = test system: Mus musculus; experiment: In-vivo activation of cGAS-STING signaling pathway in female BALB/c mouse assessed as STING level in tumor at 2.5 mg/kg, sc by Western blot analysis; type: functional, organism-based
[6] = test system: Quadruplex DNA; experiment: Stabilization of fluorescently labelled G4-quadruplex mt6363 DNA (unknown origin) assessed as effect on thermal stability of DNA structure by measuring change in melting temperature at 1 uM by FRET melting assay; type: nucleic-acid assay
[7] = Drug localization in mitochondria of mouse 4T1 cells assessed as signal colocalization incubated for 30 mins by MitoTracker Green staining based analysis; type: ADME; conditions: 4t1, 0.5 h
[8] = test system: 4T1; experiment: Antitumor activity against mouse 4T1 cells implanted with female BALB/c mouse assessed as effect on PARP level in tumor at 2.5 mg/kg, sc measured for 21 days; type: functional, organism-based; conditions: time 21.0 day
[9] = test system: Mus musculus; experiment: In-vivo activation of cGAS-STING signaling pathway in female BALB/c mouse assessed as effect on cGAS level in tumor at 2.5 mg/kg, sc by Western blot analysis; type: functional, organism-based
[10] = test system: 4T1; experiment: Induction of mitochondrial damage in mouse 4T1 cells assessed as increase in ND4 level by qPCR analysis; type: functional, cell-based
[11] = test system: 4T1; experiment: Induction of ROS generation in mouse 4T1 cells assessed as increase ROS level by DCFH-DA staining based analysis; type: functional, cell-based
[12] = test system: Mitochondrial membrane; experiment: Disruption of mitochondrial membrane potential in mouse 4T1 cells assessed as increase green fluorescence at 0 to 5 uM by JC-1 staining based analysis; conditions: dose 0-5 µM
[13] = Cytotoxicity against human MCF-10A assessed as cell growth inhibition incubated for 24 hrs by CCK-8 assay; type: toxicity, cell-based; conditions: MCF-10A cells
[14] = test system: 4T1; experiment: Induction of mitochondrial damage in mouse 4T1 cells assessed as decrease in ND4 level at 5 uM in presence of DDC by qPCR analysis; type: functional, cell-based
[15] = test system: 4T1; experiment: Activation of cGAS-STING signaling pathway in mouse 4T1 cells assessed as increase in TNF-alpha level at 5 uM by qPCR analysis; type: cell-based; conditions: filed as activator
[16] = test system: Mus musculus; experiment: Immunostimulatory activity in female BALB/c mouse implanted with mouse 4T1 cells assessed as change in CD8+ T cells in spleen at 2.5 mg/kg, sc by flow cytometry; type: functional, organism-based
[17] = test system: Mus musculus; experiment: In-vivo activation of cGAS-STING signaling pathway in female BALB/c mouse assessed as IRF3 level in tumor at 2.5 mg/kg, sc by Western blot analysis; type: functional, organism-based
[18] = test system: 4T1; experiment: Antitumor activity against mouse 4T1 cells implanted with female BALB/c mouse assessed as effect on caspase-3 level in tumor at 2.5 mg/kg, sc measured for 21 days; type: functional, organism-based; conditions: time 21.0 day
[19] = test system: 4T1; experiment: Induction of ROS generation in mouse 4T1 cells assessed as decrease ROS level at 5 uM in presence of NAC by […] analysis; type: functional, cell-based
[20] = test system: 4T1; experiment: Induction of mitochondrial damage in mouse 4T1 cells assessed as decrease in Dloop2 level at 5 uM in presence of NAC by qPCR analysis; type: functional, cell-based
[21] = test system: 4T1; experiment: Activation of cGAS-STING pathway in mouse 4T1 cells assessed as increase in cGAS expression level by Western blot analysis; type: cell-based; conditions: filed as activator, dose <= 5.0 µM
[22] = test system: Mus musculus; experiment: Immunostimulatory activity in female BALB/c mouse implanted with mouse 4T1 cells assessed as tumor infiltrating lymphocytes by measuring increase in CD4+ and CD8+T cells at 2.5 mg/kg, sc by immunohistochemistry analysis; type: functional, organism-based
[23] = test system: 4T1; experiment: Induction of mitochondrial damage in mouse 4T1 cells assessed as decrease in CytB level at 5 uM in presence of DDC by qPCR analysis; type: functional, cell-based
[24] = test system: Quadruplex DNA; experiment: Binding affinity to G4-quadruplex mt6363 DNA (unknown origin) at 10 uM by fluorescence based analysis; type: nucleic-acid assay
[25] = test system: 4T1; experiment: Antitumor activity against mouse 4T1 cells implanted with female BALB/c mouse assessed as decrease tumor volume at 2.5 mg/kg, sc administered for every 3 days for 2 weeks from day 7; type: functional, organism-based
[26] = test system: 4T1; experiment: Induction of mouse 4T1 cell maturation assessed as increase in CD80 positive cells by flow cytometric analysis; type: functional, cell-based; conditions: dose <= 5.0 µM
[27] = test system: 4T1; experiment: Activation of cGAS-STING signaling pathway in mouse 4T1 cells assessed as increase in IL-6 level up to 5 uM by ELISA analysis; type: cell-based; conditions: filed as activator
[28] = test system: MDA-MB-231; experiment: Cytotoxicity against human MDA-MB-231 cells assessed as reduction in cell viability incubated for 24 hrs by CCK-8 assay; type: functional, cell-based; conditions: MDA-MB-231, 24 h
[29] = test system: 4T1; experiment: Induction of mitochondrial damage DNA in mouse 4T1 cells assessed as reduction in mtDNA by qPCR analysis; type: functional, cell-based
[30] = test system: 4T1; experiment: Activation of cGAS-STING signaling pathway in mouse 4T1 cells assessed as […] in TBK1 phosphorylation up to 5 uM by Western blot analysis; type: cell-based; conditions: filed as activator
[31] = test system: Mus musculus; experiment: In-vivo activation of cGAS-STING signaling pathway in female BALB/c mouse assessed as increase in IL-6 level at 2.5 mg/kg, sc by ELISA analysis; type: functional, organism-based

COc1ccc(N(c2ccc(/C=C/C3=[N+](C)c4ccc5ccccc5c4C3(C)C)cc2)c2ccc(OC)cc2)cc1.[I-]
9.6 µM: IC50 at 24 h [13]
active: Activity [1] | Activity [2] | Activity [3] | Activity [4] Dose-dependent-effect | Activity [5] | Activity [8] | Activity [9] | Activity [10] | Activity [11] | Activity [12] | Activity [14] | Activity [15] | Activity [16] | Activity [17] | Activity [18] | Activity [19] | Activity [20] | Activity [21] Dose-dependent-effect | Activity [22] | Activity [23] | Activity [24] | Activity [25] | Activity [26] Dose-dependent-effect | Activity [27] | Activity [29] | Activity [30] | Activity [31]
Active: Drug uptake [7]
28.5 °C: ΔTm [6]
1.8 µM: IC50 [28]
